According to a melting point compilation (Tetko et al.; mined from patent text by program, amines drawn as free bases though some values may be those of a salt):

| SMILES | melting point [°C] |
| --- | --- |
| CCOC(=O)Cc1c(C)n(Cc2ccc(Cl)cc2)c2cccc(OCc3csc(-c4ccc(Cl)cc4)n3)c12 | 133 to 135 |
| Cc1ccc(CCOc2ccc(NC(=O)N(C)C)cc2)nc1 | 148 to 150 |
| Cc1nsc(OCC(Cl)(Cl)Cl)c1S(=O)(=O)Cl | 71 to 74 |
| O=C(O)Cc1ccc(NC(=O)C(COc2cccc(Cl)c2)NS(=O)(=O)c2ccc(Cl)cc2)cc1 (racemic) | 220 to 221 |
| CCOC(=O)c1ccc(SC)c(Cl)c1N(CC)S(C)(=O)=O | 70.5 to 73.5 |
| O=C(O)c1cc(-n2c(-c3ccccc3)cc3c2CCC3)ccc1O | 198 to 199 |
| Oc1ccc(-c2c[nH]c(-c3cccnc3)n2)cc1 | 315 to 318 |
| CNc1c(F)cc2c(=O)c(C(=O)O)cn(-c3ccc(F)c(OC)c3)c2c1Cl | 250 to 253 |
| COC(=O)c1cc(C)c(-n2c(C)ccc2C)c(C)c1 | 104 to 106 |
| S=P1(c2ccccc2)CCCC1 | 74 |
| Cc1cc(Nc2ncnc3ccn(CCNC(=O)C(C)(C)C)c23)ccc1Oc1cccc2sncc12 | 189 to 191 |
| CC(NC(=O)Cc1cc(F)cc(F)c1)C(=O)NC1NC(=O)Cc2cc(F)ccc21 (stereo not drawn) | 195 to 200 |
| Cc1cc(S(F)(F)(F)(F)F)ccc1C(=O)NC(=N)N | 183 to 184 |
| Cc1cc(-c2ccco2)ccc1C(=O)CC(=O)C(F)(F)F | 135 to 137 |
| CC(=O)c1cc(NC(=O)OC(C)(C)C)ccc1O | 107 to 108 |
| COc1ccc(C2(c3ccc(OC)cc3)CCN(C[C@H]3CN(C)[C@@H]4Cc5c[nH]c6cccc(c56)[C@@]4(OC)C3)CC2)cc1 | 215 to 222 |
| CCOC(=O)C1=C(c2ccc(-n3nc(C)nc3C)cc2)NC(C)=C(C(=O)Nc2ccccn2)C1c1ccccc1Cl (stereo not drawn) | 130 |
| N#Cc1c(Cc2ccccc2)nn(C2CCCC2)c1N | 180 to 182 |
| Cc1cccc(NC(=O)NCC(=O)N(CC(=O)Oc2ccccc2)c2ccccc2)c1 | 206 |
| COc1ccc(C(=O)C#N)cc1 | 51 to 53 |
| CC(c1ccccc1N1CCCCC1)C(C(N)=O)c1ccc(C(=O)OCc2ccccc2)cc1 (stereo not drawn) | 126 to 128 |
| CC1(C)Oc2ccc(C#N)cc2[C@@H](NC(=O)NC(=O)C(Cl)(Cl)Cl)[C@@H]1O (relative stereo) | 231 to 233 |
| COc1ccc(C[C@H](C[C@H](O)[C@H](Cc2ccccc2)NC(=O)OC(C)(C)C)C(=O)O)c(OC)c1 | 144 to 145 |
| NCC1COc2ccc3[nH]c(=O)oc3c2O1 (stereo not drawn) | > 250 |

| SMILES | melting point [°C] |
| --- | --- |
| C=CCn1c(=O)[nH]c(=O)n(-c2cc(N3C(=O)C4=C(CCCC4)C3=O)c(F)cc2Cl)c1=O | 130 to 145 |
| C=CCN1CCc2c(sc(N)c2C(=O)c2ccc(Cl)cc2)C1 | 118 to 120 |
| COc1ccc2cc(C(=O)C(C)OS(C)(=O)=O)ccc2c1 (stereo not drawn) | 149 to 151 |
| COC(=O)c1ccc(CN(C2CCCCC2C)S(=O)(=O)c2ccc(Cl)cc2)cc1 (stereo not drawn) | 93 to 95 |
| Cc1noc(NS(=O)(=O)c2ccccc2-c2ccc(-c3ncco3)cc2Cn2nccn2)c1C | 162 to 168 |
| CON=C1C=C(NC(=O)N(N)CCO)C(Cl)=C(C)C1Cl (stereo not drawn) | 152 to 156 |
| COc1ccc(C(=O)Nc2ccc(C)c(Cl)c2)cc1N | 153 to 157 |
| Cc1ccc(C(=O)NCCO)cc1-n1c(C)cc(OCc2ccccc2CNC(=O)Nc2cc(C(C)(C)C)nn2-c2cccc(OCCO)c2)c(Cl)c1=O | 162 to 163 |
| CCC(C)(NC(=O)c1cc(Cl)c(N)c(Cl)c1)C(=O)CCl (stereo not drawn) | 134 to 138 |
| CCCOc1cccc(-c2ccc3c(c2)C=C(C(=O)Nc2ccc(CN(C)C4CCOCC4)cc2)CCS3(=O)=O)c1 | 219 to 221 |
| CCCCCCCCCCCCCCCC(=O)Oc1ccc(C(O)CNCCc2ccc(OC)c(OC)c2)cc1 (stereo not drawn) | 79 to 81 |
| COc1c(C)cc(N2CCN(c3ccc([N+](=O)[O-])cc3)CC2)cc1C | 135 |
| COC(=O)c1cc(Br)c(C#N)s1 | 102 to 103 |
| COC(=O)CC(C(=O)OC)N1CCC(Nc2ncc3ncnc(Nc4cccc(Br)c4)c3n2)CC1 (stereo not drawn) | 193 |
| O=C(c1ccc(Cl)cc1)[C@H]1C[C@H]1C(=O)O (relative stereo) | 150 to 153 |
| O=C(O)C1(CCCCCCCCCCCCC2(C(F)F)CC2)CC1 | 54 to 54.8 |
| CCc1nc2cc(Cl)c(Cl)cc2n1C1CC(CO)C(O)C1O (stereo not drawn) | 191 to 193 |
| COc1cc2c(cc1OC)CN(CCCOc1ccc(N)cc1)CC2 | 100 |
| CCCC(=O)c1cnc2c(C(N)=O)cccc2c1Nc1ccccc1C | 185 to 187 |
| O=C(NCCCl)Oc1ccc(Cl)c2cccnc12 | 146 |
| O=C1N[C@@H](c2ccccc2)[C@H]1O | 175 to 180 |
| COc1ccc(CSC(=S)N2C(CO)Cc3c([nH]c4ccccc34)C2C)cc1 (stereo not drawn) | 152 to 153 |
| CC=Cc1ccc(CCNS(=O)(=O)c2ccc(Cl)cc2)cc1 | 153 to 155 |
| Nc1ccc(SCc2csc(N)n2)cc1 | 130 to 132 |
